# Measured values as given in patent US4659710A, “1,7-Naphthyridine derivatives and pharmaceutical compositions” (SS Pharmaceutical Co., Ltd., priority 1985, dated 1987).
# What was measured:
# [1] = system: carrageenan-induced swelling of the right hind paw; assay: Anti-inflammatory effects: inhibition of carrageenan-induced hind paw swelling; assay type: in vivo, Wistar rats; conditions: oral, 60 min before carrageenan, foot volume 3 hours later
# Procedure: After fasting a group of five Wistar rats of 6 weeks old for 18 hours, each test compound dissolved or suspended in a 0.5% solution of sodium carboxymethylcellulose (CMC-Na) was administered orally. Sixty minutes after the administration of the test compound, 0.1 ml of a 1% carrageenan solution was injected into subplanter surface of the right hind paw of each rat. The foot volume (A) was measured 3 hours later. From the foot volume (B) before the administration of carrageenan, the percent swelling ((A-B)/B×100) was calculated and compared with those of control rats.
# Inhibition (%)= [formula]
# [2] = system: ouabain-induced arrhythmia; assay: Antiarrhythmic effects: amount of ouabain required to induce arrhythmia; assay type: in vivo, Hartley male guinea pigs; conditions: 10 mg/kg i.v., ouabain infused at 4 μg/kg/min; for amount of ouabain required to induce unequal intervals of R-R wave: control 59.2; for amount of ouabain required to induce ventricular extrasystole or A-V block: control 80.5; for amount of ouabain required to induce ventricular extrasystole or A-V block / amount of ouabain required to induce ventricular fibrillation / amount of ouabain required to induce cardiac arrest: in µg/kg (unit assumed); for amount of ouabain required to induce ventricular fibrillation: control 170.0; for amount of ouabain required to induce cardiac arrest: control 246.6
# Procedure: Using a group of five Hartley male guinea pigs (body weights: 530-990 g), their electrocardiograms were recorded from a limbic lead II under anesthesia with urethane 1.2 g/kg i.p. to investigate the antiarrhythmic effects. Namely, each test compound dissolved in 0.1N hydrochloric acid and diluted with a physiological saline was intravenously administered at a dose of 10 mg/kg. Immediately after the administration of the test compound, ouabain was continuously infused at a rate of 4 μg/kg/min through a polyethylene cannula inserted in the jugular vein of the guinea pigs so as to induce arrhythmia. The antiarrhythmic effects were judged from the amount of ouabain required to induce unequal intervals of R-R wave, ventricular extrasystole or A-V block, ventricular fibrillation and cardiac arrest.
# [3] = Acute toxicity, mouse; conditions: in vivo, po
# [4] = Acute toxicity, rat; conditions: in vivo, po
# [5] = system: spontaneously-beating atrial muscle; assay: Cardiotonic effects: contractile force and heart rate of isolated spontaneously beating atria; set-up: species or system Hartley male guinea pig; conditions: cumulative
# Procedure: The heart of a Hartley male guinea pig having a body weight of 500-800 g was removed. Its atrial muscles were isolated in Krebs-Henseleit's solution. A spontaneously-beating atrial muscle was suspended, in a bath containing 20 ml of Krebs-Henseleit's solution gassed with 95% O2 +5% CO2 at 32° C. Thereafter, the contractile force and its heart rate were measured. After stabilization, test compounds which were dissolved in a small amount of 1N hydrochloric acid or 0.1N hydrochloric acid and then diluted with a physiological saline, were administered cumulatively ([…]) to evaluate effects on the contractile force. The maximum percent change in increase of the contractile force induced by test compounds was determined and regarded as an index for cardiotonic (positive inotropic) effects. Heart rate increasing or decreasing effects (positive or negative chronotropism) were also observed.
SMILES,LD50 [3] [mg/kg],"Chronotropy, % of Control (in parentheses) ([5]; 3 × 10^-5 g/ml) [%]","Inotropy, % of Control ([5]; 3 × 10^-5 g/ml) [%]","Chronotropy, % of Control (in parentheses) ([5]; 3 × 10^-6 g/ml) [%]","Inotropy, % of Control ([5]; 3 × 10^-6 g/ml) [%]","Chronotropy, % of Control (in parentheses) ([5]; 10^-4 g/ml) [%]","Inotropy, % of Control ([5]; 10^-4 g/ml) [%]","Chronotropy, % of Control (in parentheses) ([5]; 10^-5 g/ml) [%]","Inotropy, % of Control ([5]; 10^-5 g/ml) [%]","Chronotropy, % of Control (in parentheses) ([5]; 10^-6 g/ml) [%]","Inotropy, % of Control ([5]; 10^-6 g/ml) [%]",other results
"CC(=O)Nc1cc2cccnc2c(N2CCN(CCO)CC2)n1 [Compound No. 22, 6-acetamido-8-[4-(2-hydroxyethyl)-1-piperazinyl]-1,7-naphthyridine]",1600,–,–,–,–,–,–,–,–,–,–,Inhibition (%) ([1]; 10 mg/kg): 42.4%; amount of ouabain required to induce unequal intervals of R-R wave [2]: 69.6 µg/kg; amount of ouabain required to induce ventricular extrasystole or A-V block [2]: 109.6; amount of ouabain required to induce ventricular fibrillation [2]: 285.4; amount of ouabain required to induce cardiac arrest [2]: 399.3; LD50 [4]: > 3000 mg/kg
"Nc1cc2cccnc2c(N2CCOCC2)n1 [Compound No. 3, 6-amino-8-morpholino-1,7-naphthyridine]",–,–,–,–,–,–,–,–,–,–,–,Inhibition (%) ([1]; 100 mg/kg): 55.0%
CC(=O)Nc1cc2cccnc2c(NCc2cccnc2)n1 [Compound No. 13],> 500,1.9,52.3,1.6,8.7,-11.8,92.9,3.1,24.6,0.2,2.6,–
CC(=O)Nc1cc2cccnc2c(N2CCN(C)CC2)n1 [compound 19],–,–,–,–,–,–,–,–,–,–,–,amount of ouabain required to induce unequal intervals of R-R wave [2]: 68.9 µg/kg; amount of ouabain required to induce ventricular extrasystole or A-V block [2]: 146.0; amount of ouabain required to induce cardiac arrest [2]: 392.1
Nc1cc2cccnc2c(N2CCN(CCO)CC2)n1 [Compound No. 4],> 1000,–,–,–,–,–,–,–,–,–,–,Inhibition (%) ([1]; 30 mg/kg): 54.0%; amount of ouabain required to induce unequal intervals of R-R wave [2]: 59.1 µg/kg; amount of ouabain required to induce ventricular extrasystole or A-V block [2]: 78.9; amount of ouabain required to induce ventricular fibrillation [2]: 216.5; amount of ouabain required to induce cardiac arrest [2]: 277.5
CC(=O)Nc1cc2cccnc2c(NCC(O)CO)n1 (stereo not drawn) [compound 9],–,–,–,–,–,–,–,–,–,–,–,Inhibition (%) ([1]; 30 mg/kg): 27.1%
CC(=O)Nc1cc2cccnc2c(N(C)C)n1 [Compound No. 16],> 500,7.0,36.8,1.6,4.5,19.0,103.2,3.3,12.5,–,–,–
CCCCCCCC(=O)Nc1cc2cccnc2c(N2CCN(CCO)CC2)n1 [compound 25],–,–,–,–,–,–,–,–,–,–,–,Inhibition (%) ([1]; 10 mg/kg): 44.6%
CC(=O)Nc1cc2cccnc2c(NCCCO)n1 [Compound No. 8],–,6.8,33.4,2.7,9.6,12.9,64.1,4.0,16.4,1.1,4.1,–
CCOc1nc(NC(C)=O)cc2cccnc12 [compound 34],–,25.7,38.7,10.3,13.3,46.0,89.2,18.5,24.9,5.3,6.3,–
CNc1nc(NC(C)=O)cc2cccnc12 [compound 5],–,8.6,29.0,3.6,8.6,13.0,59.1,5.9,12.9,1.7,4.7,–
